The results in this text go back to patent US20070275935A1, “Estratriene Derivatives” (priority 2003, published 2007).

One assay concerns the target T1, Estrogen Receptor (ER) (Rattus norvegicus, UniProt P06211).
T1 construct: using rat uterine cytosol as a source of ER; from tissue; host or cells: rat uterus, cytosol fraction (30000 x g supernatant)
T1 sequence (P06211 1-600): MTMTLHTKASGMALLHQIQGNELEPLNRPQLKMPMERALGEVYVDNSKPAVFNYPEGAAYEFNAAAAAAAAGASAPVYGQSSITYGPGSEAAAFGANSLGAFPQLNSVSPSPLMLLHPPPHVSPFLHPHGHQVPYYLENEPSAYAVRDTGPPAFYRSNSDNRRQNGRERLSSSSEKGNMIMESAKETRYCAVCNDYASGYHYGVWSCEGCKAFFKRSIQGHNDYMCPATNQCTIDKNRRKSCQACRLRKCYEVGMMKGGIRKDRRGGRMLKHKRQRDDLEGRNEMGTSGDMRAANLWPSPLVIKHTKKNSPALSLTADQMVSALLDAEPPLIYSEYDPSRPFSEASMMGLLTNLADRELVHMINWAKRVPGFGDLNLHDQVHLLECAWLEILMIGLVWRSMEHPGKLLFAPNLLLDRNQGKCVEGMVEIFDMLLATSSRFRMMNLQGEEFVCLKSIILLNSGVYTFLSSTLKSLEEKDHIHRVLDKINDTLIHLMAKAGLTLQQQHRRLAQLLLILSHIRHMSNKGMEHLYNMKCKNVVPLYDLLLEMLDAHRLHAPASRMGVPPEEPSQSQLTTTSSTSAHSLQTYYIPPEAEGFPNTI
Kind of assay: Estrogen receptor binding assay, 3H-estradiol displacement from rat uterine cytosol. To be noted: for IC50: read-out: ER-RLB pIC50 (converted); for displacement of ^3H-Estradiol, in words: concentrations up to 10 μM; for ER affinity (pIC50 ^3H-E2 displacement): rat uterine cytosol, 0.2 nM [3H]-E2, tested up to 10 μM. In outline: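 Cytosol from Brown Norway rat uteri, homogenised in 10 mM Tris pH 7.4 with EDTA, glycerol and PMSF, spun at 30000×g, diluted to about 1 mg/ml protein.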

Assay [1] concerns Human airway smooth muscle (HASM) cells. Kind of assay: Thrombin-induced proliferation of human airway smooth muscle (HASM) cells, cell number after 48 h. In kind it is cell-based. To be noted: for IC50: Homo sapiens, read-out: HASM-Thr pIC50 (converted); for IC50 / HASM-Thr pIC50: negative log of the concentration that reduces the thrombin-induced proliferative response by 50%, pIC50 of 4.00 = inactive; for HASM- Thr pIC25 / HASM- Thr pIC75: two site model, thrombin-induced proliferation; for HASM- Thr pIC25: first phase (inhibition up to 50%); for HASM- Thr pIC75: second phase (inhibition up to 100%); for Cell number (% control) Thrombin (0.3 U/ml): 30 min pre-incubation, mean ± SEM (n), without analogue 133.5 ± 4.1; for Cell number (% control) Thrombin (0.3 U/ml) / inhibition of thrombin-mediated HASM proliferation, in words (FIG. 1): 48 h; for inhibition of thrombin-mediated HASM proliferation, in words (FIG. 1): thrombin 0.3 U/ml. In outline:
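Primary human bronchial smooth muscle cells seeded at 1.5×10^4 cells/cm², serum-starved 24 h, pre-incubated with compound 30 min, then stimulated 48 h with thrombin 0.3 U/ml. Cells counted by haemocytometer with trypan blue; pIC50 as negative log concentration halving proliferative response.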

Setting [2] is: 3H-estradiol displacement, cytosolic preparations of rat uterus, pIC50 of 4.00 = inactive.

A value given as a limit tells only on which side of the number the result lay.

As for `C[C@]12CC[C@@H]3c4ccc(O)cc4CC[C@H]3[C@@H]1CC/C2=N\OCc1cccc([N+](=O)[O-])c1` [CP-DM-3-102, estrone-17-(3-nitrobenzyl)oxime], at Estrogen Receptor (ER) (setting [2]), the IC50 is 2400 nM. Further, in assay [1], the IC50 was 89.1 nM, the “HASM- Thr pIC25” value is recorded as 8.03 and the “HASM- Thr pIC75” value is 5.99.
Regarding `COc1cc2c(cc1O)C(=NOCc1ccc([N+](=O)[O-])cc1)C[C@@H]1[C@@H]2CC[C@]2(C)C(=NO)CC[C@@H]12` [CP-DM-3-91, 2-methoxy-6-(4-nitrobenzyloxy)iminoestrone-17-oxime], at Estrogen Receptor (ER) (setting [2]), the “ER-RLB pIC50” value worked out at 4.26. In addition, on Estrogen Receptor (ER), the “displacement of ^3H-Estradiol, in words” value is “little or no detectable displacement” and the “ER affinity (pIC50 ^3H-E2 displacement)” value is listed as below 5.0. In addition, the “Cell number (% control) Thrombin (0.3 U/ml)” value in assay [1] (analogue 1 μM) was 117.5 ± 8.5 (8) % control. In assay [1], the “HASM-Thr pIC50” value stood at 7.59; the “inhibition of thrombin-mediated HASM proliferation, in words (FIG. 1)” value is reported as “considerably more potent than either 2MEO or 4NO”; the “HASM- Thr pIC25” value worked out at 10.32; the “HASM- Thr pIC75” value was determined as 5.70.
On to `COc1cc2c(cc1O)C(=NOCc1ccc([N+](=O)[O-])cc1)C[C@@H]1[C@@H]2CC[C@]2(C)[C@@H](O)CC[C@@H]12` [CP-DM-2-11-7, 2-methoxy-6-(4-nitrobenzyloxy)iminoestradiol], for which, at Estrogen Receptor (ER), the “displacement of ^3H-Estradiol, in words” value is listed as “little or no detectable displacement” and the “ER affinity (pIC50 ^3H-E2 displacement)” value was below 5.0. The “Cell number (% control) Thrombin (0.3 U/ml)” value in assay [1] (analogue 1 μM) was 111.1 ± 6.9 (13) % control. In addition, in assay [1], the “HASM-Thr pIC50” value is recorded as 6.90; the “inhibition of thrombin-mediated HASM proliferation, in words (FIG. 1)” value is given as “inhibitory activity on proliferation of HASM cells over a wide concentration range (10 nM to 10 μM)”; the “HASM- Thr pIC25” value is reported as 8.82; the “HASM- Thr pIC75” value is 5.66.
For the compound `COc1cc2c(cc1O)/C(=N/OCc1ccc(SC(F)(F)F)cc1)C[C@@H]1[C@@H]2CC[C@]2(C)[C@@H](O)CC[C@@H]12` [CP-DM-4-65, 2-methoxy-6-(4-trifluoromethylthiobenzyloxy)iminoestradiol], the IC50 on Estrogen Receptor (ER) (setting [2]) is 646 nM; in assay [1], 224 nM.
In the case of `COc1cc2c(cc1O)/C(=N/OCc1cc(F)cc(F)c1)C[C@@H]1[C@@H]2CC[C@]2(C)[C@@H](O)CC[C@@H]12` [CP-DM-4-35, 6-(3,5-difluorobenzyloxy)imino-2-methoxyestradiol], the IC50 on Estrogen Receptor (ER) (setting [2]) was 5250 nM. In assay [1], the IC50 was 141 nM, the “HASM- Thr pIC25” value was 7.80 and the “HASM- Thr pIC75” value stood at 5.75.
As to `COc1cc2c(cc1O)CC[C@@H]1[C@@H]2CC[C@]2(C)[C@@H](O)CC[C@@H]12` [2-methoxyestradiol, reference compound], the “ER affinity (pIC50 ^3H-E2 displacement)” value at Estrogen Receptor (ER) turned out to be 6.8. Moreover, the “Cell number (% control) Thrombin (0.3 U/ml)” value in assay [1] (analogue 10 μM) is on record as 100.9 ± 8.1 (13) % control. Moreover, in assay [1], the “HASM-Thr pIC50” value came to 5.49, the “HASM- Thr pIC25” value turned out to be 5.94 and the “HASM- Thr pIC75” value came to 4.98.
